In paper PMC12064818, “A general assay platform to study protein pharmacology using ligand-dependent structural dynamics” (Nature Communications, 2025):

Molecular target: T1, FLuc-C-HiBiT (Photinus pyralis, UniProt P08659)
T1 construct: firefly luciferase with C-terminal HiBiT tag, E. coli expressed
Test: biochemical
Settings: enzyme activity, 10 uM ATP; read-out: IC50 or SDR50 (mM) / FLuc E

T1 sequence (P08659 whole entry, looked up): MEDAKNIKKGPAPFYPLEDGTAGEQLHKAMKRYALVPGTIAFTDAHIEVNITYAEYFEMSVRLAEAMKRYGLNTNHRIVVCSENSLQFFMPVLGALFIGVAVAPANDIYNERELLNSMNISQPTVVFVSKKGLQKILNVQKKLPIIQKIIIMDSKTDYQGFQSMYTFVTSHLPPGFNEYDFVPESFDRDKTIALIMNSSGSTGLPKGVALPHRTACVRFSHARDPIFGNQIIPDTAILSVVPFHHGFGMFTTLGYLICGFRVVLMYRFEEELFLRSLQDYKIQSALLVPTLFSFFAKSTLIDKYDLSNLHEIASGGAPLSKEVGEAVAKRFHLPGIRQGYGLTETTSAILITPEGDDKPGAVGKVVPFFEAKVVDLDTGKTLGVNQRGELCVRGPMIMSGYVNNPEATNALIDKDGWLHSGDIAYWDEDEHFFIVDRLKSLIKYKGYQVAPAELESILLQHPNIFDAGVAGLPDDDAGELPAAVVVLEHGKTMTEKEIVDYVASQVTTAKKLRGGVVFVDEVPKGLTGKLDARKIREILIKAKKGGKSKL

Structure (SMILES)	IC50 [µM]
CC(=O)N[C@@H]1C=C[C@@H](c2c(C)nn(-c3ccc(C(C)(C)C)cc3)c2C)C1 [NCGC00397882-01]	18
O=C(O)c1cccc(-c2noc(-c3ccc(Cl)cc3)n2)c1 [NCGC00168764-01]	0.00221
CCn1c(C2CCCN(C(=O)Nc3ccc4c(c3)OCCO4)C2)nn(C)c1=O (stereo not shown) [NCGC00439046-01]	11.1
Cc1cccc(C(=O)Nc2ccc(-c3nc4ccccc4s3)cc2Cl)c1 [NCGC00137810-01]	> 30
COC(=O)c1ccc2c(c1)C(=Cc1cc(Br)c(O)c(Br)c1)C(=O)N2 [NCGC00242004-02]	9.89
CC1CCCCN1c1ncnc2c1cnn2-c1ccccc1 (stereo not shown) [NCGC00605414-01]	1.11
CCOc1cccc2cc(-c3nc(-c4ccccc4C)no3)c(=O)oc12 [NCGC00123322-01]	3.13
CCc1ccc(C(=O)Nc2ccc3c(N4CCOCC4)ncnc3c2)cc1 [NCGC00425539-01]	7.85
Cc1ccc(-n2ncc3c(N4CCCCC4)nc(NCCCO)nc32)cc1 [NCGC00652354-01]	> 30
CCc1ccc2oc(-c3ccc(C)c(NC(=O)c4ccc(C#N)cc4F)c3)nc2c1 [NCGC00103160-01]	> 30
Cc1noc(C)c1CC(=O)N1CCOc2c(cc(-c3nc4ccccc4s3)cc2OC2CCOC2)C1 (stereo not shown) [NCGC00239833-01]	> 30
CC(C)c1ccc(N2C(=S)N[C@H]3[C@@H](O)[C@H](O)C[C@@H](C(=O)N(C)Cc4ccccc4)[C@H]32)cc1 [NCGC00391233-01]	11.1
Cc1ccc(C(=O)Nc2ccc(-c3nc4ccccc4s3)c(O)c2)cc1 [NCGC00594710-01]	> 30
CC1CCCN(c2ncnc3c2cnn3-c2ccccc2)C1 (stereo not shown) [NCGC00081381-02]	0.442
OC1(CN2CCCCC2)CCN(c2nc3ccccc3s2)C1 (stereo not shown) [NCGC00437487-01]	15.7
Cc1cccc(NC(=O)Nc2ccc(F)cc2)n1 [NCGC00106833-01]	12.4
CCN1CCN(c2ccc(-c3cccc(N)c3)nn2)CC1 [NCGC00432707-01]	9.89
O=C(Nc1cccc(-c2ccc(N3CCCC3)nn2)c1)c1c(F)cccc1F [NCGC00427548-01]	8.81
Cc1ccc(C(=O)NCCn2cccc2-c2nc(-c3ccc4c(c3)OCO4)no2)cn1 [NCGC00445612-01]	11.1
CCc1noc(-c2nc(-c3ccc4c(c3)OCO4)no2)n1 [NCGC00450064-01]	9.89
CC1CCCN(c2ncnc3c2cnn3-c2ccc(Cl)cc2)C1 (stereo not shown) [NCGC00081383-02]	0.124
O=C(NCCc1ccccc1)c1ccc2c(c1)nc1n2CCOC1 [NCGC00133386-01]	8.81

Structure (SMILES)	IC50 [µM]
CCC(CC)C(=O)Nc1cccc(-c2nc3ccccc3s2)c1 [NCGC00119163-01]	15.7
COc1cccc(Nc2cc3c(cn2)CN(Cc2cccnc2)CCN3)c1 [NCGC00411131-01]	10.1
O=C(Cc1cccc(Cl)c1)N1CCn2c(nnc2-c2ccccc2)C1 [NCGC00479548-01]	15.7
O=C(O)C1(Oc2ccc3ccccc3c2)CCN(c2ncnc3[nH]cnc23)CC1 [NCGC00441641-01]	> 30
c1ccc(Nc2cc3c(cn2)CN(Cc2cc[nH]n2)CCN3)cc1 [NCGC00411115-01]	16.1
COCCNC(=O)C1CCN(C(=O)c2nnn3c2COC(c2ccc(C)cc2)C3)CC1 (stereo not shown) [NCGC00449559-01]	4.95
O=C(O)c1ccc(-c2noc(-c3ccccc3F)n2)cc1 [NCGC00168096-02]	0.197
COC(=O)C1CCN(c2csc3ccc(C)cc3c2=O)CC1 [NCGC00132290-01]	7.85
C=Cc1ccc(-c2nc3ccc(OC)cc3s2)cc1 [NCGC00167606-01]	0.442
O=C(Nc1ccc2c(c1)OCO2)c1cccc2c1CCN2C(=O)Nc1ccc(F)cc1 [NCGC00430184-01]	0.197
CCOC(=O)C1(C)C=C(Nc2cccc(C(=O)O)c2)C(=O)N1c1ccccc1 (stereo not shown) [NCGC00100416-01]	12.4
Cc1nn(-c2ccc(C(C)C)cc2)c(C)c1[C@@H]1C=C[C@@H](NC(=O)CC2(CC(=O)O)CCCC2)C1 [NCGC00421413-01]	> 30
CN(C)c1cccc(C(=O)Nc2ccc3c(N4CCOCC4)ncnc3c2)c1 [NCGC00425557-01]	9.89
Cc1ccc(-c2cc(N)n(-c3ccc(C)cc3)n2)cc1 [NCGC00141302-01]	9.89
COc1cc(NC(=O)Nc2cccc(-c3ccc(N4CCOCC4)nn3)c2)cc(OC)c1 [NCGC00427592-01]	1.76
O=C(COc1ccc(Cl)cc1)Nc1ccc(-c2nc3ccccc3s2)c(O)c1 [NCGC00098783-01]	> 30
CC(Oc1ccccc1F)C(=O)Nc1ccc(-c2nc3ccccc3s2)cc1 (stereo not shown) [NCGC00119149-01]	8.81
Cc1cnc(CCNC(=O)Nc2ccc3c(c2)OCCO3)n1Cc1ccc(F)cc1 [NCGC00469838-01]	12.4
COc1ccc(C)cc1NC(=O)Nc1cccc(-c2ccc(N3CCCCC3)nn2)c1 [NCGC00427638-01]	1.11
Cc1ccc(C2=NOC3(CCN(C(=O)c4cccc(N(C)C)c4)CC3)N2)cc1 [NCGC00446875-01]	9.89
CC(=O)NCCNC(=O)c1ccc2c(=O)n(CCc3ccccc3)c(=O)[nH]c2c1 [NCGC00104963-01]	5.56
Clc1ccc(-n2ncc3c(NC4CCCC4)ncnc32)cc1 [NCGC00139250-01]	1.24

Structure (SMILES)	IC50 [µM]
Cc1ccc(NC(=O)c2ccc3snnc3c2)cc1C [NCGC00114783-01]	8.81
COc1c(C)cccc1C(=O)Nc1ccc(-c2nc3ccccc3s2)c(Cl)c1 [NCGC00102004-01]	> 30
Fc1ccc(-n2ncc3c(N4CCCCCC4)ncnc32)cc1 [NCGC00138953-01]	1.24
CC(C)Oc1cccc(-c2cccc(COc3ccc4c(cnn4CC[S+](C)(=O)[O-])c3)c2)c1 [NCGC00418050-01]	11.1
COc1ccc(Br)cc1C(=O)Nc1nc2ccc(F)cc2s1 [NCGC00102907-01]	> 30
Fc1cccc(Nc2nc(-c3ccccc3)no2)c1 [NCGC00422294-01]	7
Cc1ccc(-n2ncc3c(N4CCC(Cc5ccccc5)CC4)ncnc32)cc1 [NCGC00139020-01]	> 30
CCCN1C(=O)c2ccc(-c3nc4ccccc4s3)cc2C1=O [NCGC00597617-01]	1.97
COc1ccc(-c2nnc(SC(C)C(=O)O)o2)cc1 (stereo not shown) [NCGC00103120-01]	14
O=C1c2cnc(-c3ccc(CO)cc3)nc2OCCN1CC1CC1 [NCGC00413563-01]	11.4
CCc1cccc(-n2nnc(-c3nsc(NC(=O)c4cccs4)n3)c2C)c1 [NCGC00129048-01]	> 30
Cc1csc(NC(=O)c2nc3c(o2)CCN(Cc2ccccc2F)CC3)n1 [NCGC00413264-01]	12.8
O=C(Nc1cccc(-c2ccc(N3CCOCC3)nn2)c1)Nc1ccc2c(c1)CCC2 [NCGC00427612-01]	2.79
O=C(Nc1cnc(-c2ccc(Cl)cc2)nc1)C1CCC1 [NCGC00432903-01]	1.24
Cn1ccc2c(C(=O)NCCc3c[nH]cn3)nc(-c3ccc(N4CCOCC4)cc3)cc21 [NCGC00411589-01]	4.53
Cc1nc[nH]c1CN1CCNc2cc(Nc3ccccc3)ncc2C1 [NCGC00411231-01]	18
CC(C)(C)C1CCc2nc(NC(=O)c3cccc(Cl)c3)sc2C1 (stereo not shown) [NCGC00119231-01]	2.48
CC1(Cc2ccc3c(c2)OCO3)CCCN(C(=O)c2ccc3ncsc3c2)C1 (stereo not shown) [NCGC00444241-01]	9.89
Cc1cc(-c2cc3c(cn2)CN(Cc2ccccn2)CCN3)ccn1 [NCGC00411150-01]	20.2
Cc1csc(NC(=O)c2nc3c(o2)CCN(Cc2cccc(F)c2)CC3)n1 [NCGC00413280-01]	14.3
CN1c2cc(C(=O)Nc3ccccc3)ccc2C(=O)N2CCCCCC21 (stereo not shown) [NCGC00452190-01]	11.1
CCC(CC)c1nn2cc(-c3ccccc3)nc2s1 [NCGC00117460-01]	0.881

Structure (SMILES)	IC50 [µM]
CCOC(=O)c1cc(-c2ccccc2)nn1Cc1ccccc1 [NCGC00108381-01]	> 30
Cc1cc2nc(-c3cccc(NC(=O)COc4ccc(C(C)C)cc4)c3)oc2cc1C [NCGC00102495-01]	9.89
Cc1ccc(-c2nc(C(=O)N3CCN(c4ccccc4)CC3)no2)cc1 [NCGC00447113-01]	11.1
Cc1ccc(C(=O)Nc2ccc3oc(-c4ccccc4C)nc3c2)cc1 [NCGC00118998-01]	> 30
COc1ccc(NC(=O)N[C@@H]2C=C[C@@H](c3c(C)nn(-c4ccc(C(C)C)cc4)c3C)C2)cc1 [NCGC00421407-01]	> 30
O=C(COc1ccccc1[N+](=O)[O-])Nc1cccc(-c2nc3ccccc3s2)c1 [NCGC00119155-01]	> 30
COc1ccc(-c2noc([C@@H]3C[C@@H](O)CN3Cc3cccs3)n2)cc1 [NCGC00400674-01]	20.2
Cc1cccc(C(=O)Nc2ccc(-c3nc4ccccc4s3)c(C)c2)c1 [NCGC00137838-01]	9.89
Fc1ccc(Nc2ncc(-c3cccnc3)c3c2OCC3)cc1 [NCGC00412761-01]	11.4
O=C(c1ccncc1)N1CCC(Oc2ccc(-c3noc(-c4ccccc4)n3)cc2)C1 (stereo not shown) [NCGC00440993-01]	12.4
O=C1c2cnc(-c3ccc(F)cc3)nc2OCCN1CC1CC1 [NCGC00413585-01]	14.3
Cn1ccnc1CN1C(=O)CO[C@H](c2ccc(NC(=O)Nc3ccccc3)cc2)[C@H]1CO [NCGC00396650-01]	14
CN1c2cc(C(=O)Nc3cccc(F)c3)ccc2C(=O)N2CCCCCC21 (stereo not shown) [NCGC00452183-01]	12.4
COc1ccc(CCNc2nc3ccccc3c3nc(-c4cccc(C)c4)nn23)cc1OC [NCGC00112564-01]	11.1
COc1ccc(C(=O)NC2CCCN(c3cc(-c4ccc(Cl)cc4)n[nH]3)C2)cc1OC (stereo not shown) [NCGC00437414-01]	6.24
Cc1ncccc1C(=O)N1CC(Oc2ccc(-c3nc(-c4ccccc4)no3)cc2)C1 [NCGC00441179-01]	6.24
CCC(=O)NCCC1CCN(C(=O)Nc2ccc(C)c(F)c2)CC1 [NCGC00425067-01]	11.1
CCCc1ccc(OCc2ccc(C(=O)Nc3ccccc3C(=O)OC)o2)cc1 [NCGC00101032-01]	12.4
CCc1cccc(NC(=O)c2cc(-c3ccc[nH]3)n[nH]2)c1 [NCGC00454482-03]	9.89
